Laboratory results taken from patent US9802937B2, “Substituted pyrazolo{4,3-D}pyrimidines as kinase inhibitors” (ORIGENIS GMBH, priority 2011, dated 2017).

Assays:
[1] = target: T1, SYK kinase (Homo sapiens, UniProt P43405); experiment: SYK Assay (OMNIA KINASE ASSAY, SOX peptide fluorescence); format: biochemical; conditions: apparent Ki calculated from the IC50 using the Cheng-Prusoff equation; 1 mM ATP, 30° C.; read-out: SYK Activities: Ki
T1 construct: purchased Invitrogen, Carlsbad
Procedure, shortened: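 Apparent Ki values are derived by Cheng-Prusoff from IC50s of sigmoidal fits of reaction rate against compound concentration. Rates come from chelation-enhanced SOX fluorescence (λex 360/λem 485 nm, read every 30 s over 30 min) as the kinase phosphorylates 10 µM Omnia Tyr 7 peptide at 30 °C, with 1 mM ATP and 0.2 mM DTT.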

[2] = target: LRRK2 (Homo sapiens, UniProt Q5S007); experiment: LRRK2-LRRK2 G2019S-Assay (LanthaScreen Eu Kinase Binding Assay); conditions: 5 nM LRRK2 or their mutants, 10 nM tracer 236, RT 1 h; read-out: LRRK2 Activities: IC50
Chain of LRRK2 (Q5S007 970-2527 limits assumed): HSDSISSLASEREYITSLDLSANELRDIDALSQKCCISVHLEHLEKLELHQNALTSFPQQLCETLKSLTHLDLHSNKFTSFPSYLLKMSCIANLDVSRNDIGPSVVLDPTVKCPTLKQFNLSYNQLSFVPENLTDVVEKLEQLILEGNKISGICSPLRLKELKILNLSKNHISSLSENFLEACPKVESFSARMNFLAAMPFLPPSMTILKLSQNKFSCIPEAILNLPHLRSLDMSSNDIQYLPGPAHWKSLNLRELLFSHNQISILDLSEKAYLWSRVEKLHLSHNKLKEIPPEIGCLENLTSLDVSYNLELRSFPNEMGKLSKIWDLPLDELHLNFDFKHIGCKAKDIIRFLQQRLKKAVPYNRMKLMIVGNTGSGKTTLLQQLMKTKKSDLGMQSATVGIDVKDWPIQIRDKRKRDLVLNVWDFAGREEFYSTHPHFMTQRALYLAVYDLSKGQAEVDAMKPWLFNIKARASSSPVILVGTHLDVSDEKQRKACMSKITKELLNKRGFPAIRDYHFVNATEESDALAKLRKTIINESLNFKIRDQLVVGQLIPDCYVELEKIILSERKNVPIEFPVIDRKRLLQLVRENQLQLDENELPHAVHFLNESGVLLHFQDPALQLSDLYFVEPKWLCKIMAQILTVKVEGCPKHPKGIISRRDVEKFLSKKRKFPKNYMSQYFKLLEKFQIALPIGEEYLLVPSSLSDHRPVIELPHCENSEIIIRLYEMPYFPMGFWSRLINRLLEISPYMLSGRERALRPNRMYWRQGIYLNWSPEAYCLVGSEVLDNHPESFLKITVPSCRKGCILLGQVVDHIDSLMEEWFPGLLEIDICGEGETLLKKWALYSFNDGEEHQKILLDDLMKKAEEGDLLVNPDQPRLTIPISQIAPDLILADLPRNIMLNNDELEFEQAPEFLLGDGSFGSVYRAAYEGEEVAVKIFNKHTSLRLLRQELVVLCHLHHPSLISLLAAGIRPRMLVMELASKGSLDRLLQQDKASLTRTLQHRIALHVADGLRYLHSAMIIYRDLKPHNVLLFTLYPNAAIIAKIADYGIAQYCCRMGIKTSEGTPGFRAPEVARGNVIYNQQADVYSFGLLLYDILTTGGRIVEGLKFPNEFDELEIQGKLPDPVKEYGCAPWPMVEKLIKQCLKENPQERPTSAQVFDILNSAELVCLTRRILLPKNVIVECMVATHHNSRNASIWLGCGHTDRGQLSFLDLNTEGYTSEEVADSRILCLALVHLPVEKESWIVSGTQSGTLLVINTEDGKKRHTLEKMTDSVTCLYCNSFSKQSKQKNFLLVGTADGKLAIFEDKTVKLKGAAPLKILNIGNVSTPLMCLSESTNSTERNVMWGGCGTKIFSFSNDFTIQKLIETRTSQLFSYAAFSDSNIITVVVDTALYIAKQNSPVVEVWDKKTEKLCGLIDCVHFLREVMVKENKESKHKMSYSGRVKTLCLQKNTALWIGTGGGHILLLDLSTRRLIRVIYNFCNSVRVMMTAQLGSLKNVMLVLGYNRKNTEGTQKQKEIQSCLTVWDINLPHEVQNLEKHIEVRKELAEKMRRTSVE
Method: In the assay LanthaScreen™ Eu Kinase Binding Assay by Invitrogen Corporation (Carlsbad) the effect of invention of a compound on the phosphorylation is determined by measurement of fluorescence intensity emission ratio based on the binding and displacement of a proprietary, Alexa Fluor® 647-labeled, ATP-competitive kinase inhibitor scaffold (kinase tracer) to the kinase of interest. Binding of the tracer to the kinase is detected using a europium-labeled anti-tag antibody, which binds to the kinase of interest. Simultaneous binding of both the tracer and antibody to the kinase results in a high degree of FRET (fluorescence resonance energy transfer) from the europium (Eu) donor fluorophore to the Alexa Fluor® 647 acceptor fluorophore on the kinase tracer. Binding of an inhibitor to the kinase competes for binding with the tracer, resulting in a loss of FRET. The fluorescence intensity ratio is directly proportional to the amount of peptide phosphorylation.
To the wells of an 384 well small volume plate (Greiner, Frickenhausen) are added (i) the compound under test in 5% DMSO/distilled water (5 μl), (ii) 5 μl of the kinase antibody mixture resulting in a final concentration 5 nM LRRK2 or their mutants, 2 nM EU-Anti-GST antibody in 1× kinase buffer A. The reaction was started with addition of (iii) 5 μl resulting in a final concentration of 10 nM tracer 236. The assay plate was incubated at RT for 1 h and fluorescence intensitiy readings were collected using a TECAN M1000 at two wavelengthes of λex 340/λem 615 nm and λex 340/λm 665 nm with a delay time of 100 μs and an integration time of 200 μs after 60 minutes. The emission ratio was calculated by division of the acceptor/tracer emission ([…]) by the antibody/donor emission ([…]). The inhibitor concentration was plotted versus the emission ratio to determine the IC50 using XLFit 5.0 (IDBS, Guildford) to fit to a sigmoidal dose response curve with a variable slope.

| Ki [1] | IC50 [2] | Structure (SMILES) |
| --- | --- | --- |
| < 0.01 µM | 0.1 to 1 µM | c1ccc(-c2nc(Nc3ccc4[nH]ncc4c3)c3[nH]ncc3n2)cc1 [Example #1, N-(1H-indazol-5-yl)-5-phenyl-1H-pyrazolo[4,3-d]pyrimidin-7-amine] |
| < 0.01 µM | 0.1 to 1 µM | c1ccc(-c2nc(Nc3ccc4[nH]nnc4c3)c3[nH]ncc3n2)cc1 [Example #2, N-(1H-benzo[d][1,2,3]triazol-5-yl)-5-phenyl-1H-pyrazolo[4,3-d]pyrimidin-7-amine] |
| < 0.01 µM | 0.1 to 1 µM | CN(C)c1ccc(Nc2nc(-c3ccccc3)nc3cn[nH]c23)cc1 [Example #4, N1,N1-dimethyl-N4-(5-phenyl-1H-pyrazolo[4,3-d]pyrimidin-7-yl)benzene-1,4-diamine] |
| < 0.01 µM | 0.1 to 1 µM | COc1ccc(Nc2nc(-c3ccccc3)nc3cn[nH]c23)cc1OC [Example #6, N-(3,4-dimethoxyphenyl)-5-phenyl-1H-pyrazolo[4,3-d]pyrimidin-7-amine] |
| < 0.01 µM | 0.1 to 1 µM | c1ccc(-c2nc(Nc3ccc(N4CCOCC4)cc3)c3[nH]ncc3n2)cc1 [Example #7, N-(4-morpholinophenyl)-5-phenyl-1H-pyrazolo[4,3-d]pyrimidin-7-amine] |
| 0.01 to 0.1 µM | 0.1 to 1 µM | Cc1nc2cc(Nc3nc(-c4ccccc4)nc4cn[nH]c34)ccc2[nH]1 [Example #9, N-(2-methyl-1H-benzo[d]imidazol-5-yl)-5-phenyl-1H-pyrazolo[4,3-d]pyrimidin-7-amine] |
| < 0.01 µM | 0.1 to 1 µM | O=C(O)c1ccc(Nc2nc(-c3ccccc3)nc3cn[nH]c23)cc1 [Example #10, 4-((5-phenyl-1H-pyrazolo[4,3-d]pyrimidin-7-yl)amino)benzoic-acid] |
| 0.01 to 0.1 µM | 0.1 to 1 µM | c1cc2[nH]ncc2cc1Nc1nc(-c2ccc(N3CCCC3)nc2)nc2cn[nH]c12 [Example #14, N-(1H-indazol-5-yl)-5-(6-(pyrrolidin-1-yl)pyridin-3-yl)-1H-pyrazolo[4,3-d]pyrimidin-7-amine] |
| < 0.01 µM | 0.1 to 1 µM | c1cc(-c2nc(Nc3ccc4cn[nH]c4c3)c3[nH]ncc3n2)ccn1 [Example #16, N-(1H-indazol-6-yl)-5-(pyridin-4-yl)-1H-pyrazolo[4,3-d]pyrimidin-7-amine] |
| 0.01 to 0.1 µM | 0.1 to 1 µM | CN(C)c1ccc(Nc2nc(-c3ccncc3)nc3cn[nH]c23)cc1 [Example #17, N1,N1-dimethyl-N4-(5-(pyridin-4-yl)-1H-pyrazolo[4,3-d]pyrimidin-7-yl)benzene-1,4-diamine] |
| 0.01 to 0.1 µM | 0.1 to 1 µM | COc1ccc(Nc2nc(-c3ccncc3)nc3cn[nH]c23)cc1OC [Example #18, N-(3,4-dimethoxyphenyl)-5-(pyridin-4-yl)-1H-pyrazolo[4,3-d]pyrimidin-7-amine] |
| 0.01 to 0.1 µM | 0.1 to 1 µM | COc1ccc(-c2nc(Nc3ccc4cn[nH]c4c3)c3[nH]ncc3n2)cc1OC [Example #22, 5-(3,4-dimethoxyphenyl)-N-(1H-indazol-6-yl)-1H-pyrazolo[4,3-d]pyrimidin-7-amine] |
| < 0.01 µM | 0.01 to 0.1 µM | COc1ccc(-c2nc(Nc3ccc(N(C)C)cc3)c3[nH]ncc3n2)cc1OC [Example #23, N1-(5-(3,4-dimethoxyphenyl)-1H-pyrazolo[4,3-d]pyrimidin-7-yl)-N4,N4-dimethylbenzene-1,4-diamine] |
| 0.01 to 0.1 µM | 0.1 to 1 µM | COc1ccc(Nc2nc(-c3ccc(OC)c(OC)c3)nc3cn[nH]c23)cc1OC [Example #24, N,5-bis(3,4-dimethoxyphenyl)-1H-pyrazolo[4,3-d]pyrimidin-7-amine] |
| < 0.01 µM | 0.1 to 1 µM | COc1ccc(-c2nc(Nc3ccc(N4CCOCC4)cc3)c3[nH]ncc3n2)cc1OC [Example #25, 5-(3,4-dimethoxyphenyl)-N-(4-morpholinophenyl)-1H-pyrazolo[4,3-d]pyrimidin-7-amine] |
| 0.01 to 0.1 µM | 0.01 to 0.1 µM | COc1ccc(-c2nc(Nc3ccc4c(c3)NC(=O)CO4)c3[nH]ncc3n2)cc1OC [Example #26, 6-((5-(3,4-dimethoxyphenyl)-1H-pyrazolo[4,3-d]pyrimidin-7-yl)amino)-2H-benzo[b][1,4]oxazin-3(4H)-one] |

| Ki [1] | IC50 [2] | Structure (SMILES) |
| --- | --- | --- |
| 0.01 to 0.1 µM | 0.1 to 1 µM | CN1CCC(c2nc(Nc3ccc4cn[nH]c4c3)c3[nH]ncc3n2)CC1 [Example #27, N-(1H-indazol-6-yl)-5-(1-methylpiperidin-4-yl)-1H-pyrazolo[4,3-d]pyrimidin-7-amine] |
| 0.01 to 0.1 µM | 0.1 to 1 µM | CN1CCC(c2nc(Nc3ccc(N(C)C)cc3)c3[nH]ncc3n2)CC1 [Example #28, N1,N1-dimethyl-N4-(5-(1-methylpiperidin-4-yl)-1H-pyrazolo[4,3-d]pyrimidin-7-yl)benzene-1,4-diamine] |
| 0.01 to 0.1 µM | 0.1 to 1 µM | COc1ccc(Nc2nc(-c3ccc(N4CCCC4)nc3)nc3cn[nH]c23)cc1OC [Example #32, N-(3,4-dimethoxyphenyl)-5-(6-(pyrrolidin-1-yl)pyridin-3-yl)-1H-pyrazolo[4,3-d]pyrimidin-7-amine] |
| < 0.01 µM | 0.1 to 1 µM | c1cc(N2CCOCC2)ccc1Nc1nc(-c2ccc(N3CCCC3)nc2)nc2cn[nH]c12 [Example #33, N-(4-morpholinophenyl)-5-(6-(pyrrolidin-1-yl)pyridin-3-yl)-1H-pyrazolo[4,3-d]pyrimidin-7-amine] |
| < 0.01 µM | < 0.01 µM | c1ccc(-c2nc(Nc3ccc4cn[nH]c4c3)c3[nH]ncc3n2)cc1 [Example #36, N-(1H-indazol-6-yl)-5-phenyl-1H-pyrazolo[4,3-d]pyrimidin-7-amine] |
| 0.01 to 0.1 µM | 0.01 to 0.1 µM | O=C1COc2ccc(Nc3nc(-c4ccccc4)nc4cn[nH]c34)cc2N1 [Example #37, 6-((5-phenyl-1H-pyrazolo[4,3-d]pyrimidin-7-yl)amino)-2H-benzo[b][1,4]oxazin-3(4H)-one] |
| 0.01 to 0.1 µM | 0.1 to 1 µM | COc1ccc(-c2nc(Nc3ccc4[nH]ncc4c3)c3[nH]ncc3n2)cc1OC [Example #40, 5-(3,4-dimethoxyphenyl)-N-(1H-indazol-5-yl)-1H-pyrazolo[4,3-d]pyrimidin-7-amine] |
|  | 0.1 to 1 µM | COc1ccc(-c2nc(Nc3cc[nH]n3)c3[nH]ncc3n2)cc1OC [Example #41, 5-(3,4-dimethoxyphenyl)-N-(1H-pyrazol-3-yl)-1H-pyrazolo[4,3-d]pyrimidin-7-amine] |
| 0.01 to 0.1 µM | 0.1 to 1 µM | O=C1COc2ccc(Nc3nc(-c4ccc(N5CCCC5)nc4)nc4cn[nH]c34)cc2N1 [Example #47, 6-((5-(6-(pyrrolidin-1-yl)pyridin-3-yl)-1H-pyrazolo[4,3-d]pyrimidin-7-yl)amino)-2H-benzo[b][1,4]oxazin-3(4H)-one] |
| 0.1 to 1 µM | 0.1 to 1 µM | c1cc(Nc2nc(-c3ccc(N4CCCC4)nc3)nc3cn[nH]c23)n[nH]1 [Example #48, N-(1H-pyrazol-3-yl)-5-(6-(pyrrolidin-1-yl)pyridin-3-yl)-1H-pyrazolo[4,3-d]pyrimidin-7-amine] |
| 0.01 to 0.1 µM | 0.1 to 1 µM | CN1CCC(c2nc(Nc3ccc4[nH]ncc4c3)c3[nH]ncc3n2)CC1 [Example #50, N-(1H-indazol-5-yl)-5-(1-methylpiperidin-4-yl)-1H-pyrazolo[4,3-d]pyrimidin-7-amine] |
|  | 0.1 to 1 µM | O=S(=O)(NC1CC1)c1cccc(Nc2nc(-c3cccs3)nc3cn[nH]c23)c1 [Example #261, N-cyclopropyl-3-((5-(thiophen-2-yl)-1H-pyrazolo[4,3-d]pyrimidin-7-yl)amino)benzenesulfonamide] |
| 0.1 to 1 µM |  | CC(C)(C)c1cccc(Nc2nc(-c3cccs3)nc3cn[nH]c23)c1 [Example #305, N-(3-(tert-butyl)phenyl)-5-(thiophen-2-yl)-1H-pyrazolo[4,3-d]pyrimidin-7-amine] |
| 0.1 to 1 µM |  | COC(=O)c1cccc(-c2nc(Nc3ccc4cn[nH]c4c3)c3[nH]ncc3n2)c1 [Example #307, methyl 3-(7-((1H-indazol-6-yl)amino)-1H-pyrazolo[4,3-d]pyrimidin-5-yl)benzoate] |
| 0.01 to 0.1 µM |  | CN(C)Cc1ccc(Nc2nc(-c3cccc(N)c3)nc3cn[nH]c23)cc1 [Example #309, 5-(3-aminophenyl)-N-(4-((dimethylamino)methyl)phenyl)-1H-pyrazolo[4,3-d]pyrimidin-7-amine] |
| 0.1 to 1 µM |  | CN(C)Cc1cccc(Nc2nc(-c3ccccc3F)nc3cn[nH]c23)c1 [Example #312, N-(3-((dimethylamino)methyl)phenyl)-5-(2-fluorophenyl)-1H-pyrazolo[4,3-d]pyrimidin-7-amine] |
